Source: patent publication US20090054376A1, “BENZOFURAN DERIVATIVES WITH THERAPEUTIC ACTIVITIES” (Pharmos Corporation, priority 2005, published 2009)
“Also recorded” adds a separate entry of the source. Like-named read-outs stand apart in the source and are kept apart here.

What was measured:
[1] = tested on: CB1 related cannabimimetic activity; test: Safety: body temperature, catalepsy, spontaneous locomotor activity, elevated plus maze, sensitivity to touch; assay type: in vivo, ICR male mice; conditions: 2 mg/kg i.v.
Description: In the present study, impact of compounds of the invention on the central nervous system was measured by monitoring the body temperature, catalepsy and spontaneous locomotor activity of rodents. These activities are part of the Tetrad assays which are indicative, if all parameters are affected, of CB1 mediated activity. In addition, lack of CNS psychomimetic effect was assessed in the elevated plus maze model. Finally, sensitivity to touch was determined in order to evaluate peripheral CB1 related activity.
ICR male mice (average body weight 25 g, Harlan, Israel) were administered the compounds of the invention i.v. at a dose of 2 mg/kg and at a volume dose of 5 ml/kg. The psychoactive cannabinoid HU-210 was used as positive control at the 100-fold lower dose of 0.02 mg/kg i.v. The following measurements were made starting 15 minutes after compound administration. All tests were completed for each animal within approximately 10 minutes. Rectal temperature was monitored using a thermistor probe (YSI model 400, USA). Spontaneous locomotion was assessed using the open field methodology. The number of squares crossed by the animals were recorded and analyzed during a period of three minutes. At the end of the open field test, the animals were tested for catalepsy symptoms. This was carried out by gently forcing the animal to stand on its hind paws when its front paws are holding on an elevated beam. The time for the animal to step down of the beam was measured in seconds. A normal animal withdraws the beam immediately whereas cataleptic animal tend to stay on the beam. The longer the animal stays leaning on the beam, the more cataleptic the animal is. The behavior of the animals was then assessed in the elevated plus maze. The elevated plus maze consists of two open arms and two arms that are enclosed by high walls (arms 30×10 cm, wall height 20 cm). The elevated plus maze is usually elevated 80 cm above the floor. The mouse is placed on the maze head facing an open arm, and the time spent in the different compartments of the maze (open arms, closed arms and central area) are measured for the next 5 minutes. Results are expressed as percent of the time spent in the open arms, normal animals preferring to stay in the closed arms of the maze. Finally, animals were gently touched by an observer blinded for the treatment group and their sensitivity scored according to the following scale: 0 not sensitive, 1 sensitive and 2 highly sensitive. Results are expressed as average±SEM. At the end of the study, the animals were euthanized.

[2] = tested on: carrageenan induced inflammatory pain and paw edema; test: Inflammatory pain and paw edema induced by carrageenan; assay type: in vivo, Male Sprague Dawley rats; conditions: 10 mg/kg i.p.; for inhibition in vivo at 10 mg/kg: Rattus norvegicus, ip
Procedure, shortened: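 Male Sprague Dawley rats (~200 g) received 0.1 ml 2% λ-carrageenan subplantar in the right paw; compounds given i.p. at 3, 10 or 20 mg/kg (some p.o.) immediately after. Thermal (Hargreaves) latency, mechanical threshold, paw thickness and volume measured at 0 and 3 h; values are inter-paw differences ([…], ΔForce), volume as % of vehicle.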

[3] = tested on: IL-1β; test: Cytokine secretion into blood circulation in LPS injected mice, IL-1β; assay type: in vivo, Balb/C female mice; conditions: 2 mg/kg i.v., LPS 3 mg/kg i.p., plasma 90 minutes after LPS
Description: (§1) Balb/C female mice (average body weight 20 g, Harlan, Israel) were injected i.v. at a volume dosage of 5 ml/kg with either vehicle or test compounds at a dose of 2 mg/kg. Each treatment group comprised at least 9 animals. Immediately after compound or control administration, the mice were injected i.p. with 3 mg/kg LPS (E. coli 055:B5, Calbiochem). Ninety minutes after LPS induction, blood samples were collected into heparanized test tubes. Plasma was separated by centrifugation (10,000 rpm for 5 minutes at RT) and stored at −20° C. until assayed. The level of the inflammatory mediator under study, IL-1β, IL-6, IL-10 or TNF-α, was assayed by ELISA techniques.
(§2) The technique used to quantify the amount of a given protein in a liquid sample, either tissue culture supernatant or body fluid, is based on Enzyme Linked ImmunoSorbent Assay (ELISA) methodology. Either commercially available or established in house, the assay is based on the capture of the protein of interest by specific antibodies bound to the bottom of an ELISA plate well. Unbound material is washed away, the captured protein is then exposed to a secondary antibody generally labeled with horseradish peroxidase (HRP) or alkaline phosphatase (ALP). Again the unbound material is washed away, and the samples are then incubated with the appropriate substrate yielding a colorimetric reaction. The reaction is stopped and reading is performed in a spectrophotometer at the appropriate wavelength. Samples are tested at least in duplicate and the appropriate standard curve, consisting of serial dilutions of the recombinant target protein, is incorporated on each plate. The concentration of the protein in the sample is calculated from the standard curve.
(§3) The results are expressed as percent inhibition of secretion, taking into account the maximal cytokine concentration in vehicle “treated” animals and the baseline level in naïve animals. […] Inhibition above 50% was considered highly significant.

[4] = tested on: IL-10; test: Cytokine secretion into blood circulation in LPS injected mice, IL-10; assay type: in vivo, Balb/C female mice; conditions: 2 mg/kg i.v., LPS 3 mg/kg i.p., plasma 90 minutes after LPS
Description: as §1, §2, §3

[5] = tested on: IL-6; test: Cytokine secretion into blood circulation in LPS injected mice, IL-6; assay type: in vivo, Balb/C female mice; conditions: 2 mg/kg i.v., LPS 3 mg/kg i.p., plasma 90 minutes after LPS
Description: as §1, §2, §3

[6] = tested on: TNF-α; test: Cytokine secretion into blood circulation in LPS injected mice, TNF-α; assay type: in vivo, Balb/C female mice; conditions: 2 mg/kg i.v., LPS 3 mg/kg i.p., plasma 90 minutes after LPS
Description: as §1, §2, §3

[7] = tested on: visceral pain writhing responses; test: Visceral pain, acetic acid induced writhing responses; assay type: in vivo, Male ICR mice; conditions: single dose 2 mg/kg i.v., compared to untreated group
[8] = tested on: visceral pain writhing responses; test: Tolerance: repeated administration in the model of Visceral Pain; assay type: in vivo, mice; conditions: tested day 11 at 2 mg/kg i.v.
Description: Male ICR mice (average body weight 25 g, Harlan, Israel) were pretreated by i.v. injection at volume dose of 5 ml/kg of vehicle, control and test compounds at various doses. Other routes of administration were tested for selected compounds including i.m. or s.c. injections at volume dose of 2.5 ml/kg and p.o. gavage at volume dose of 5 ml/kg. Compounds were dissolved in CREMOPHOR®:Ethanol and diluted 1:20 in saline prior to injection or gavage. Compounds administered i.v. were injected fifteen minutes before pain induction, whereas compounds administered i.m., s.c. or p.o. were supplied thirty minutes before pain induction, unless otherwise indicated. Each treatment group, except for controls comprising at least 30 animals, was composed of at least 6 animals. Fifteen or thirty minutes after drug administration, depending on the route of administration, the mice were injected i.p. with 10 ml/kg of 0.6% acetic acid and the number of visceral pain related behaviors (writhing movements globally defined as WR, i.e. stretching, contractions of the abdomen accompanied by an elongation of the body and extension of the hind limbs) was counted over a period of 5 minutes, starting 5 minutes after the acetic acid administration. These visceral pain related behaviors were globally defined as writhing responses (WR). The results are expressed as mean number of writhing responses ±SEM. Data were analyzed using analysis of variance (ANOVA) followed by post-hoc Fisher test.
Briefly compounds of the invention were administered at 10 mg/kg i.p. daily for 10 days and their analgesic activity was tested on day 11 as described in Example 17 (namely at 2 mg/kg i.v.). […] Each treatment group comprised 10 animals.

[9] = 10 mg/kg i.v.; cited from earlier work
[10] = tested on: pentobarbital-induced sleep; conditions: 10 mg/kg i.v.; cited from earlier work

**Q.** Which “adverse cannabimimetic activities in any of the parameters monitored” value [1] does the source give for `CCCCCCC(C)(C)c1cc(O)c2c(c1)OC1CCCCCC21` (stereo not drawn) [Compound C7S-1, 2-(1,1-dimethylheptyl)-5,6,7,8,9,9a-hexahydro-4bH-10-oxa-benzo[α]azulen-4-ol] here?
**A.** None

**Q.** What about the “decrease of rectal temperature” value ([1]; non-significant) of the same molecule?
**A.** about 1.2 °C

**Q.** What about the rectal temperature ([1]; vehicle 38.88±0.11° C.) of the same molecule?
**A.** 37.45±0.39 °C

**Q.** What about the “Percent Inhibition of Inflammatory Pain Responses, Edema” value ([2]; 3 hours after carrageenan, reduction in paw swelling) of the same molecule?
**A.** 60%

**Q.** And the “Percent Inhibition of Inflammatory Pain Responses, ΔForce” value ([2]; 3 hours, mechanical stimulus)?
**A.** 13%

**Q.** And the “Percent Inhibition of Inflammatory Pain Responses, ΔLT” value ([2]; 3 hours, thermal stimulus)?
**A.** 0%

**Q.** What about the “Inhibition of cytokine secretion into blood circulation, IL-1β” value [3] of the same molecule?
**A.** NO (NO indicates that the compound tested did not significantly affect the level of cytokine in plasma of LPS injected mice and that its activity is comparable to vehicle, within ±20% from this control)

**Q.** And the “Inhibition of cytokine secretion into blood circulation, IL-10” value [4]?
**A.** 82%

**Q.** And the “Inhibition of cytokine secretion into blood circulation, IL-6” value [5]?
**A.** 82%

**Q.** What about the “Inhibition of cytokine secretion into blood circulation, TNF-α” value [6] of the same molecule?
**A.** NO (NO indicates that the compound tested did not significantly affect the level of cytokine in plasma of LPS injected mice and that its activity is comparable to vehicle, within ±20% from this control)

**Q.** And the “Percent Inhibition of Visceral Pain Writhing Responses” value [7]?
**A.** 76%

**Q.** For `CN1CC[C@]23c4c5ccc(O)c4O[C@H]2[C@@H](O)C=C[C@H]3[C@H]1C5` [morphine, reference compound], which “writhing responses on day 11” value ([8]; repeated administration daily for 10 days (10 mg/kg i.p.), vehicle 29.75±1.09) is on record?
**A.** 9.60±2.85

**Q.** What about the “reduction in pain response after repeated administration” value ([8]; repeated administration daily for 10 days) of the same molecule?
**A.** 68%

**Q.** What about the “Percent Inhibition of Visceral Pain Writhing Responses” value ([7]; 2 mg/kg) of the same molecule?
**A.** eradicated the pain response; also recorded: totally eliminated the pain response

**Q.** For `CCCCCCC(C)(C)c1cc(O)c2c(c1)OC1C(O)CCCC21` (stereo not shown) [Compound C6S-5, 3-(1,1-Dimethylheptyl)-5a,6,7,8,9,9a-hexahydro-dibenzofuran-1,6-diol], which “adverse cannabimimetic activities in any of the parameters monitored” value [1] is on record?
**A.** None

**Q.** And the inhibition in vivo at 10 mg/kg ([2]; 3 hours after carrageenan, reduction in paw swelling, read-out: Percent Inhibition of Inflammatory Pain Responses, Edema)?
**A.** 56%

**Q.** What about the inhibition in vivo at 10 mg/kg ([2]; 3 hours, mechanical stimulus, read-out: Percent Inhibition of Inflammatory Pain Responses, ΔForce) of the same molecule?
**A.** 34%

**Q.** What about the inhibition in vivo at 10 mg/kg ([2]; 3 hours, thermal stimulus, read-out: Percent Inhibition of Inflammatory Pain Responses, ΔLT) of the same molecule?
**A.** 61%

**Q.** What about the “Inhibition of cytokine secretion into blood circulation, IL-1β” value [3] of the same molecule?
**A.** NO (NO indicates that the compound tested did not significantly affect the level of cytokine in plasma of LPS injected mice and that its activity is comparable to vehicle, within ±20% from this control)

**Q.** What about the “Inhibition of cytokine secretion into blood circulation, IL-10” value [4] of the same molecule?
**A.** 84%

**Q.** And the “Inhibition of cytokine secretion into blood circulation, IL-6” value [5]?
**A.** 85%

**Q.** What about the “Inhibition of cytokine secretion into blood circulation, TNF-α” value [6] of the same molecule?
**A.** NO (NO indicates that the compound tested did not significantly affect the level of cytokine in plasma of LPS injected mice and that its activity is comparable to vehicle, within ±20% from this control)

**Q.** What about the inhibition in vivo at 2 mg/kg ([7]; Mus musculus, iv, read-out: Percent Inhibition of Visceral Pain Writhing Responses) of the same molecule?
**A.** 35%

**Q.** With `C=C(C)[C@@H]1CC[C@](C)(O)[C@H]2Oc3cc(CCCCC)cc(O)c3[C@@H]12` [CBE] as the molecule, how does the “effect on body temperature of mice” value [9] read?
**A.** does not affect body temperature of mice

**Q.** And the “prolongation of pentobarbital-induced sleep” value [10]?
**A.** nor does it prolong pentobarbital-induced sleep
